Experimental findings from patent US12662475B2, “Difluorocyclohexyl derivatives as IL-17 modulators” (UCB BIOPHARMA SRL, priority 2020, dated 2026) are described below.

Where a name gives a salt, the structure may show the parent alone.

The subject of this assay is IL-17 induced IL-6 release from human dermal fibroblasts. Nature of the assay: Inhibition of IL-17A induced IL-6 release from dermal fibroblast cell line (HDF cell line assay). Type of assay: cell-based. Particulars: Incubation Time 5 h. As to the method:
Inhibition of IL-17A Induced IL-6 Release from Dermal Fibroblast Cell Line
The purpose of this assay is to test the neutralising ability to IL-17 proteins, in a human primary cell system.
The resultant IL-6 response was then measured using a homogenous time-resolved FRET kit from Cisbio. The kit utilises two monoclonal antibodies, one labelled with Eu-Cryptate (Donor) and the second with d2 or XL665 (Acceptor).
The ability of a compound to inhibit IL-17 induced IL-6 release from human dermal fibroblasts is measured in this assay.
The TrypLE was neutralised using complete medium (45 mL) and the cells were centrifuged at 300×g for 3 minutes. […] The cells were left for a minimum of three hours, at 37° C./5% CO2, to adhere to the plate.
10 μL from the aqueous dilution plate was transferred to the reagent plate containing 30 μL of the diluted cytokines, to give a 2.5% DMSO solution. The compounds were incubated with the cytokine mixtures for 1 h or 5 h at 37° C. After the incubation, 10 μL was transferred to the assay plate, to give a […] solution, then incubated for 18-20 h at 37° C./5% CO2.
`Cc1nonc1C(=O)N[C@H](c1nc2c(F)c(C(CC(F)F)C(=O)NC(C3CC3)C(F)(F)F)ccc2[nH]1)C1CCC(F)(F)CC1` (stereo partly drawn) [Example 52, N—[(S)-(5-{1-[(1-Cyclopropyl-2,2,2-trifluoroethyl)carbamoyl]-3,3-difluoropropyl}-4-fluoro-1H-benzimidazol-2-yl)(4,4-difluorocyclohexyl)methyl]-4-methyl-1,2,5-oxadiazole-3-carboxamide]: the half-inhibitory concentration (IC50) (commonly the concentration that gives 50% inhibition) is 5.01 nM. This counts as single-digit nanomolar.
The same measure for `CC(C)n1ncnc1C(=O)N[C@H](c1nc2c(F)c([C@H](CC(F)(F)F)C(=O)NCC(C)(F)F)ccc2[nH]1)C1CCC(F)(F)CC1` (single isomer, unassigned) [Example 70]: 6.31 nM.
Consider `Cc1nonc1C(=O)N[C@H](c1nc2c(F)c(C(CC(F)F)C(=O)NCC(F)(F)F)ccc2[nH]1)C1CCC(F)(F)CC1` (mixture of isomers) [Example 40, N—[(S)-(4,4-Difluorocyclohexyl){5-[3,3-difluoro-1-(2,2,2-trifluoroethylcarbamoyl)-propyl]-4-fluoro-1H-benzimidazol-2-yl}methyl]-4-methyl-1,2,5-oxadiazole-3-carboxamide], for which the IC50 is 7.94 nM.
`O=C(N[C@H](c1nc2c(F)c([C@@H](CC(F)F)C(=O)NCC(F)(F)F)ccc2[nH]1)C1CCC(F)(F)CC1)c1ccccc1F` (single isomer, unassigned) [Example 51] gave an IC50 of 1580 nM. This IC50 is about 200-fold higher than that of the molecule before.
In turn, `Cc1nonc1C(=O)N[C@H](c1nc2c(F)c(C(CC(F)F)C(=O)N[C@H](C)C(F)(F)F)ccc2[nH]1)C1CCC(F)(F)CC1` (mixture of isomers) [Example 46, N—{(S)-(4,4-Difluorocyclohexyl)[5-(3,3-difluoro-1-{[(1R)-2,2,2-trifluoro-1-methylethyl]-carbamoyl}propyl)-4-fluoro-1H-benzimidazol-2-yl]methyl}-4-methyl-1,2,5-oxadiazole-3-carboxamide] had an IC50 of 398 nM.
The result for `Cc1nonc1C(=O)N[C@H](c1nc2c(F)c([C@@H](CC(F)(F)F)C(=O)NCC(F)(F)F)ccc2[nH]1)C1CCC(F)(F)CC1` (single isomer, unassigned) [Example 35] reads 631 nM.
As to `CC(C)(F)CNC(=O)[C@H](CC(F)(F)F)c1ccc2[nH]c([C@@H](NC(=O)c3nonc3C3CC3)C3CCC(F)(F)CC3)nc2c1F` (single isomer, unassigned) [Example 63], the IC50 is 158 nM.
The result for `CC(C)n1ncnc1C(=O)N[C@H](c1nc2c(F)c(C(CC(F)F)C(=O)NCC(C)(F)F)ccc2[nH]1)C1CCC(F)(F)CC1` (mixture of isomers) [Example 53, N—[(S)-(4,4-Difluorocyclohexyl){5-[1-(2,2-difluoropropylcarbamoyl)-3,3-difluoropropyl]-4-fluoro-1H-benzimidazol-2-yl}methyl]-2-isopropyl-1,2,4-triazole-3-carboxamide] reads 63.1 nM; that for `Cc1nonc1C(=O)N[C@H](c1nc2c(F)c([C@H](CC(F)(F)F)C(=O)NCC(F)(F)F)ccc2[nH]1)C1CCC(F)(F)CC1` (single isomer, unassigned) [Example 34], 2.51 nM.
The result for `CC(C)(F)CNC(=O)[C@@H](CC(F)(F)F)c1ccc2[nH]c([C@@H](NC(=O)c3nonc3C3CC3)C3CCC(F)(F)CC3)nc2c1F` (single isomer, unassigned) [Example 64] reads 2 nM; that for `CC(C)n1ncnc1C(=O)N[C@H](c1nc2nc(C3(C(=O)NCC(F)(F)F)CCC(F)(F)CC3)ccc2[nH]1)C1CCC(F)(F)CC1` [Example 77, N—[(S)-(4,4-Difluorocyclohexyl){5-[4,4-difluoro-1-(2,2,2-trifluoroethylcarbamoyl)-cyclohexyl]-1H-imidazo[4,5-b]pyridin-2-yl}methyl]-2-isopropyl-1,2,4-triazole-3-carboxamide], 12.6 nM.
The result for `CCS(=O)(=O)CCC(C(=O)N1CC(F)(F)C(F)(F)C1)c1ccc2[nH]c([C@@H](NC(=O)c3nonc3C)C3CCC(F)(F)CC3)nc2c1F` (mixture of isomers) [Example 27, N—[(S)-(4,4-Difluorocyclohexyl){5-[3-(ethylsulfonyl)-1-(3,3,4,4-tetrafluoropyrrolidine-1-carbonyl)propyl]-4-fluoro-1H-benzimidazol-2-yl}methyl]-4-methyl-1,2,5-oxadiazole-3-carboxamide] reads 6.31 nM; that for `CC(C)(F)CNC(=O)C(CC(F)(F)F)c1ccc2[nH]c([C@@H](NC(=O)c3nonc3C3CC3)C3CCC(F)(F)CC3)nc2c1F` (mixture of isomers) [Example 62, 4-Cyclopropyl-N—[(S)-(4,4-difluorocyclohexyl)(4-fluoro-5-{3,3,3-trifluoro-1-[(2-fluoro-2-methylpropyl)carbamoyl]propyl}-1H-benzimidazol-2-yl)methyl]-1,2,5-oxadiazole-3-carboxamide], 5.01 nM.
`CC(C)n1ncnc1C(=O)N[C@H](c1nc2c(F)c([C@H](CC(C)(F)F)C(=O)NCC(C)(C)F)ccc2[nH]1)C1CCC(F)(F)CC1` [Example 79, N—[(S)-(4,4-Difluorocyclohexyl)(5-{(1S)-3,3-difluoro-1-[(2-fluoro-2-methylpropyl)-carbamoyl]butyl}-4-fluoro-1H-benzimidazol-2-yl)methyl]-2-isopropyl-1,2,4-triazole-3-carboxamide]: the half-maximal inhibitory concentration (IC50) is 7.94 nM.
Molecule `Cc1nonc1C(=O)N[C@H](c1nc2nc(C3(C(=O)NCC(F)(F)F)CCC(F)(F)CC3)ccc2[nH]1)C1CCC(F)(F)CC1` [Example 39, N—[(S)-(4,4-Difluorocyclohexyl){5-[4,4-difluoro-1-(2,2,2-trifluoroethylcarbamoyl)-cyclohexyl]-1H-imidazo[4,5-b]pyridin-2-yl}methyl]-4-methyl-1,2,5-oxadiazole-3-carboxamide Monoformate Salt] gave an IC50 of 5.01 nM. Compared with the last molecule, the IC50 is about 1.6-fold lower.
Molecule `CC(F)(F)CNC(=O)[C@@H](CC(F)(F)F)c1ccc2[nH]c([C@@H](NC(=O)C3(F)CC3)C3CCC(F)(F)CC3)nc2c1F` (single isomer, unassigned) [Example 84] showed an IC50 of 25.1 nM. Against the preceding molecule, the IC50 is about 5-fold higher.
The result for `Cc1nonc1C(=O)N[C@H](c1nc2c(F)c([C@@H](CC(F)(F)F)C(=O)N[C@@H](C)C(F)(F)F)ccc2[nH]1)C1CCC(F)(F)CC1` (single isomer, unassigned) [Example 26] reads 126 nM; that for `CC(C)n1ncnc1C(=O)N[C@H](c1nc2c(F)c([C@@H](CC(F)(F)F)C(=O)NCC(C)(F)F)ccc2[nH]1)C1CCC(F)(F)CC1` (single isomer, unassigned) [Example 69], 2510 nM.
`Cc1nonc1C(=O)N[C@H](c1nc2c(F)c([C@H](CC(F)F)C(=O)N[C@H](C)C(F)(F)F)ccc2[nH]1)C1CCC(F)(F)CC1` (single isomer, unassigned) [Example 47] gave an IC50 of 158 nM.
With `Cc1nonc1C(=O)N[C@H](c1nc2c(F)c([C@@H](CC(F)F)C(=O)N[C@@H](C)C(F)(F)F)ccc2[nH]1)C1CCC(F)(F)CC1` (single isomer, unassigned) [Example 45], the 50% inhibitory concentration (IC50) was 501 nM.
The same measure for `Cc1nonc1C(=O)N[C@H](c1nc2c(F)c(C(CC(F)(F)F)C(=O)NCC(F)(F)F)ccc2[nH]1)C1CCC(F)(F)CC1` (mixture of isomers) [Example 33, N—[(S)-(4,4-Difluorocyclohexyl){4-fluoro-5-[3,3,3-trifluoro-1-(2,2,2-trifluoroethyl-carbamoyl)propyl]-1H-benzimidazol-2-yl}methyl]-4-methyl-1,2,5-oxadiazole-3-carboxamide]: 3.98 nM.
As for `Cc1nonc1C(=O)N[C@H](c1nc2c(F)c(C(CC(F)(F)F)C(=O)N[C@@H](C)C(F)(F)F)ccc2[nH]1)C1CCC(F)(F)CC1` (mixture of isomers) [Example 15, N—{(S)-(4,4-Difluorocyclohexyl)[4-fluoro-5-(3,3,3-trifluoro-1-{[(1S)-2,2,2-trifluoro-1-methylethyl]carbamoyl}propyl)-1H-benzimidazol-2-yl]methyl}-4-methyl-1,2,5-oxadiazole-3-carboxamide], the IC50 is 20 nM.
Consider `CCS(=O)(=O)CC[C@H](C(=O)N1CC(F)(F)C(F)(F)C1)c1ccc2[nH]c([C@@H](NC(=O)c3nonc3C)C3CCC(F)(F)CC3)nc2c1F` (single isomer, unassigned) [Example 28], for which 3.16 nM corresponded to half-maximal inhibition (IC50).
In the case of `CC(C)n1ncnc1C(=O)N[C@H](c1nc2c(F)c([C@@H](CC(F)(F)F)C(=O)NCC(C)(C)F)ccc2[nH]1)C1CCC(F)(F)CC1` (single isomer, unassigned) [Example 72], the half-inhibitory concentration (IC50) was 1580 nM.
The molecule `CC(C)n1ncnc1C(=O)N[C@H](c1nc2c(F)c(C(CC(F)(F)F)C(=O)NCC(C)(C)F)ccc2[nH]1)C1CCC(F)(F)CC1` (mixture of isomers) [Example 71, N—[(S)-(4,4-Difluorocyclohexyl)(4-fluoro-5-{3,3,3-trifluoro-1-[(2-fluoro-2-methyl-propyl)carbamoyl]propyl}-1H-benzimidazol-2-yl)methyl]-2-isopropyl-1,2,4-triazole-3-carboxamide] had a 50% inhibitory concentration (IC50) of 25.1 nM.
